The values that follow come from publication PMC6161059 (ACS Central Science, 2018).

Each structure is given as a SMILES string.

One test addresses β2AR(1.19H4) (Homo sapiens, UniProt P07550, INS20HHHH). Nature of the test: Fluorescence Ca2+ imaging. The test is classed as cell-based. The note with it: 1 µM MAC(β2AR, O4), 5 µM U73122.
The target in another test is T1, M1R(1.18H4) (Homo sapiens, UniProt P11229).
T1 sequence (P11229 1-460): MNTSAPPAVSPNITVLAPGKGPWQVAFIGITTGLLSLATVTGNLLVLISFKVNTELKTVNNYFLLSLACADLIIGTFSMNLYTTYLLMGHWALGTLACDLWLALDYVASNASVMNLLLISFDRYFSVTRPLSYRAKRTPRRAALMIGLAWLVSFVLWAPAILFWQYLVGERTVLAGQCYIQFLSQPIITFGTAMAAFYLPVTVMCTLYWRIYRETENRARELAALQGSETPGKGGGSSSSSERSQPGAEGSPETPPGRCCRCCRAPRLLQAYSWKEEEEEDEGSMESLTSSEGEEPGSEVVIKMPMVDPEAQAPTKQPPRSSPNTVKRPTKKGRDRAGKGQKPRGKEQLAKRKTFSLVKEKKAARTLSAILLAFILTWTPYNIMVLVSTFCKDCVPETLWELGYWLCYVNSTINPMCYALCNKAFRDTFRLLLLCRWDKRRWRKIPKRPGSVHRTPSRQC
The test is classed as cell-based. The conditions noted are these: CHO cells, 1 μM Ni–NTA.

Turning to `COc1ccc2c(c1)CC[C@@H]1[C@@H]2CC[C@]2(C)[C@@H](NCCCCCCN3C(=O)C=CC3=O)CC[C@@H]12` [U73122], the “MAC(β2AR, O4)-induced Ca2+ response in presence of PLC inhibitor” value at β2AR(1.19H4) was “no response was detected”. With `C[N+](C)(C)CC#CCOC1=NOCC1` [iperoxo], at M1R(1.18H4), the “concentration–response on addition of Ni–NTA” value is listed as “unaffected”.
